Experimental data as given in ChEMBL document CHEMBL3407375, “Substituted pyrrolidin-2-ones: Centrally acting orexin receptor antagonists promoting sleep. Part 2” (Bioorg Med Chem Lett, 2015).

Columns and labels:
Cytochrome P450 2C9 [1] = target: T1, Cytochrome P450 2C9 (Homo sapiens, UniProt P11712); assay: Time dependent inhibition of CYP2C9 (unknown origin); format: ADME
Rattus norvegicus [2] = assay: Induction of sleep in Wistar rat assessed as decrease in home cage activity at 100 mg/kg, po after 12 hrs relative to control; format: functional
Rattus norvegicus [3] = assay: Induction of sleep in Wistar rat assessed as time spent in active wake at 100 mg/kg, po after 12 hrs (reference value: 44.6%); format: functional
Cytochrome P450 2C9 [4] = target: T1, Cytochrome P450 2C9; assay: Inhibition of CYP2C9 (unknown origin); format: ADME
Rattus norvegicus [5] = assay: Induction of sleep in Wistar rat assessed as time spent in non-REM sleep at 100 mg/kg, po after 12 hrs (reference value: 29.8%); format: functional
MDR1 [6] = assay: Passive apparent permeability from basolateral to apical side in MDCK cells expressing human MDR1; format: ADME, cell-based, Canis lupus familiaris; settings: dog
Rattus norvegicus [7] = assay: Induction of sleep in Wistar rat assessed as time spent in quiet wake at 100 mg/kg, po after 12 hrs (reference value: 19.5%); format: functional
[8] = Intrinsic metabolic clearance in human liver microsomes at 1 uM; format: ADME; settings: read-out: CLH
Cytochrome P450 2D6 [9] = target: T2, Cytochrome P450 2D6 (Homo sapiens, UniProt P10635); assay: Inhibition of CYP2D6 (unknown origin); format: ADME
T2 sequence (P10635 whole entry): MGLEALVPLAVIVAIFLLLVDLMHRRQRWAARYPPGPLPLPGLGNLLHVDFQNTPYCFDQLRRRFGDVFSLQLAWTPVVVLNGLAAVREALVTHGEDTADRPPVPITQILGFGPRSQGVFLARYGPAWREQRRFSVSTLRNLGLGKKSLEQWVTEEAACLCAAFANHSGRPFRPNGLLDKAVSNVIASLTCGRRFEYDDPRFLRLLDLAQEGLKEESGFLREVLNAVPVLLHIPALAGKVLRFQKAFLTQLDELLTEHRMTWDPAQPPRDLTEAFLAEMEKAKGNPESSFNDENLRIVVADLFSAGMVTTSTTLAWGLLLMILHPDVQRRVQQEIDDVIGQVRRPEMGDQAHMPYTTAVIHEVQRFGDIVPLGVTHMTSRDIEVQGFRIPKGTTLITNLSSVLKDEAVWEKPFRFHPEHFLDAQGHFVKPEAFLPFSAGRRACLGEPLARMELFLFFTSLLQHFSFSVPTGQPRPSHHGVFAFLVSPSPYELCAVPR

[10] = Intrinsic metabolic clearance in rat liver microsomes at 1 uM; format: ADME; settings: read-out: CLH
Rattus norvegicus [11] = assay: Induction of sleep in Wistar rat assessed as time spent in REM sleep at 100 mg/kg, po after 12 hrs (reference value: 6%); format: functional
Cytochrome P450 3A4 [12] = target: T3, Cytochrome P450 3A4 (Homo sapiens, UniProt P08684); assay: Time dependent inhibition of CYP3A4 (unknown origin); format: ADME
T3 sequence (P08684 whole entry): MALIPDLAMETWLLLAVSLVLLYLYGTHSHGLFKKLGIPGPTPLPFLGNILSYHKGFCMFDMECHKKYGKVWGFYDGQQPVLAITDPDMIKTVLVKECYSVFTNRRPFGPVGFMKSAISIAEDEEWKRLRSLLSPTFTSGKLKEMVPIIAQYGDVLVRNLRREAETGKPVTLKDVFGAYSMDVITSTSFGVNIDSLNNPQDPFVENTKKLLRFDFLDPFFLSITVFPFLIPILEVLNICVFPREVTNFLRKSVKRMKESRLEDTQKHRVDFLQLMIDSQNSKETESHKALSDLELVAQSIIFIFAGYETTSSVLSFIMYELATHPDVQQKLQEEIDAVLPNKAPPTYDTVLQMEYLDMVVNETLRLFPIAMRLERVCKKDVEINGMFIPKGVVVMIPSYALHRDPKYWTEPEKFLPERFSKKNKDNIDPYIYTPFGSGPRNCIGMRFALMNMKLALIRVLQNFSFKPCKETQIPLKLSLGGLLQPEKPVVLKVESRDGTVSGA

Rattus norvegicus [13] = assay: Induction of sleep in Wistar rat assessed as increase in time spent in REM sleep at 100 mg/kg, po after 12 hrs relative to control; format: functional
Cytochrome P450 3A4 [14] = target: T3, Cytochrome P450 3A4; assay: Inhibition of CYP3A4 (unknown origin); format: ADME
MDR1 [15] = assay: Passive apparent permeability from apical to basolateral side in MDCK cells expressing human MDR1; format: ADME, cell-based, Canis lupus familiaris; settings: dog
Cytochrome P450 3A4 [16] = target: T3, Cytochrome P450 3A4; assay: Inhibition of CYP3A4 (unknown origin) using testosterone as marker substrate; format: ADME
Rattus norvegicus [17] = assay: Induction of sleep in Wistar rat assessed as increase in time spent in non-REM sleep at 100 mg/kg, po after 12 hrs relative to control; format: functional
Cytochrome P450 2D6 [18] = target: T2, Cytochrome P450 2D6; assay: Time dependent inhibition of CYP2D6 (unknown origin); format: ADME
Rattus norvegicus [19] = assay: Induction of sleep in Wistar rat assessed as decrease in time spent in active wake at 100 mg/kg, po after 12 hrs relative to control; format: functional
[20] = Drug level in Wistar rat brain measured per gram of tissue at 100 mg/kg, po after 3 hrs; format: ADME, organism-based; set-up: dose 100 mg/kg, route oral; settings: read-out: Drug uptake
[21] = Ratio of drug level in brain to plasma in Wistar rat at 100 mg/kg, po afer 3 hrs; format: ADME, organism-based; set-up: dose 100 mg/kg, route oral; settings: read-out: BPR
[22] = target: Orexin/Hypocretin receptor type 1 (Homo sapiens, UniProt O43613); assay: Antagonist activity at human orexin 1 receptor expressed in CHO cells assessed as inhibition of orexin-A-induced calcium mobilization by FLIPR assay; format: functional, cell-based
Sequence of Orexin/Hypocretin receptor type 1 (O43613 whole entry, looked up): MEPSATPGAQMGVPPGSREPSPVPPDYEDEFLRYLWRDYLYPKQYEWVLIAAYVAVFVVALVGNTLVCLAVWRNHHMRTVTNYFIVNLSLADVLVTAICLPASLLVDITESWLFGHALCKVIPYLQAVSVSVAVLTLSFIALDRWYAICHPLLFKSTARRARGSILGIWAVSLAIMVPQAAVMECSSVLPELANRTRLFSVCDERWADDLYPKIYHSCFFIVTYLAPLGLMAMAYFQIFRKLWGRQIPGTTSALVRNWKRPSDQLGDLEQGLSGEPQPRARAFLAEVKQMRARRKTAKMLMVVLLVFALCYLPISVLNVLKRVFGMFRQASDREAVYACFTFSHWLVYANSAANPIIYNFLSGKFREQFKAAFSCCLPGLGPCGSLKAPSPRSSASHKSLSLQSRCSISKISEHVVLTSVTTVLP

[23] = Drug level in Wistar rat plasma at 100 mg/kg, po after 3 hrs; format: ADME, organism-based; set-up: dose 100 mg/kg, route oral
[24] = Plasma protein binding in Wistar rat at 100 mg/kg, po after 3 hrs; format: ADME, organism-based; set-up: dose 100 mg/kg, route oral; settings: read-out: PPB
Orexin receptor type 2 = Orexin receptor type 2 (Homo sapiens, UniProt O43614); assay: Antagonist activity at human orexin 2 receptor expressed in CHO cells assessed as inhibition of orexin-A-induced calcium mobilization by FLIPR assay; format: functional, cell-based
Sequence of Orexin receptor type 2 (O43614 whole entry, looked up): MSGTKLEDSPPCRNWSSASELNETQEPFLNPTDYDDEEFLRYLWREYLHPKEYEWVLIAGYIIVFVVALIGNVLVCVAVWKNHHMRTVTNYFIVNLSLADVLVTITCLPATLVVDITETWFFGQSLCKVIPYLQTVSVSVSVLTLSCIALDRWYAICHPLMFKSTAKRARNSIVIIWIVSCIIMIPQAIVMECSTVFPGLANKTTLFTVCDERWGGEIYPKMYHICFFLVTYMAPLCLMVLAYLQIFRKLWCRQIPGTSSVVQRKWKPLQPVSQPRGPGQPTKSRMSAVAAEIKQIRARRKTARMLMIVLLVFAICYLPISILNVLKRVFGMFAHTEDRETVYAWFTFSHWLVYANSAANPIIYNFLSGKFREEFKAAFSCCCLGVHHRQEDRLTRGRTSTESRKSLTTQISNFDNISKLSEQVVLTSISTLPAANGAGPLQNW

Rattus norvegicus [25] = assay: Induction of sleep in Wistar rat assessed as time spent in quiet wake at 100 mg/kg, po after 12 hrs (reference value: 32.8%); format: functional
Rattus norvegicus [26] = assay: Induction of sleep in Wistar rat assessed as time spent in REM sleep at 100 mg/kg, po after 12 hrs (reference value: 4.7%); format: functional
Rattus norvegicus [27] = assay: Induction of sleep in Wistar rat assessed as time spent in non-REM sleep at 100 mg/kg, po after 12 hrs (reference value: 32.1%); format: functional
Rattus norvegicus [28] = assay: Induction of sleep in Wistar rat assessed as time spent in active wake at 100 mg/kg, po after 12 hrs (reference value: 30%); format: functional

T1 sequence (P11712 whole entry): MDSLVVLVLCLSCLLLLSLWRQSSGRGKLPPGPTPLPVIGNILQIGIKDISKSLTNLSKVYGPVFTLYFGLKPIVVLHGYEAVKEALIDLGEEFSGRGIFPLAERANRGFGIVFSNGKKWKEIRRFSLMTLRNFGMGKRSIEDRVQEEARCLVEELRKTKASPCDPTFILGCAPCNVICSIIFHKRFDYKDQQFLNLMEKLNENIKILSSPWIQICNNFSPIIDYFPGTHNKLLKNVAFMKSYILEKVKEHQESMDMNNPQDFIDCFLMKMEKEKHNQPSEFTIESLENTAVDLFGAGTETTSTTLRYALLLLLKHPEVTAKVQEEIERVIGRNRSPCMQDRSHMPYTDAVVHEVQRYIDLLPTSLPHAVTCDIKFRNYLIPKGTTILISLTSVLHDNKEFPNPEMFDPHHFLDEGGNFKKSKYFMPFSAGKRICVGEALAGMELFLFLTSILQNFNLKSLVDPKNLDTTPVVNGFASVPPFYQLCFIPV

| SMILES | microsomal CLint at 1 µM [8] [µL/min/mg] | IC50 (Cytochrome P450 3A4 [16]) [µM] | IC50 [22] [µM] | further results |
| --- | --- | --- | --- | --- |
| COc1cccc(F)c1[C@@H]1C[C@@H](O)C(=O)N1Cc1ccc2oc3ccccc3c2c1 | 102 | > 50 | – | TDI (Cytochrome P450 2C9 [1]): Not Active; inhibition in vivo at 100 mg/kg (Rattus norvegicus [2]): 35%; Activity (Rattus norvegicus [3]): 39.2%; IC50 (Cytochrome P450 2C9 [4]): 9.4 µM; Activity (Rattus norvegicus [5]): 34.4%; Papp B→A (MDR1 [6]): 26.6 ×10⁻⁶ cm/s; Activity (Rattus norvegicus [7]): 19.2%; IC50 (Cytochrome P450 2D6 [9]): 47 µM; microsomal CLint at 1 µM [10]: > 1250 µL/min/mg; Activity (Rattus norvegicus [11]): 7.1%; TDI (Cytochrome P450 3A4 [12]): Not Active; Activity (Rattus norvegicus [13]): 38%; IC50 (Cytochrome P450 3A4 [14]): > 50 µM; Papp A→B (MDR1 [15]): 12.5 ×10⁻⁶ cm/s; Activity (Rattus norvegicus [17]): 20%; TDI (Cytochrome P450 2D6 [18]): Not Active; inhibition in vivo at 100 mg/kg (Rattus norvegicus [19]): 20%; concentration at 3 h [20]: 585 ng/g; Kp at 3 h [21]: 2.3 |
| COc1cccc(F)c1C1C[C@@H](O)C(=O)N1Cc1ccc2oc3ccccc3c2c1 (mixture of isomers) | 96 | 46 | – | – |
| COc1cccc(OC)c1[C@@H]1C[C@H](C)C(=O)N1Cc1ccc(OC(F)(F)F)cc1 (racemic) | – | 8.7 | – | – |
| COc1cccc(OC)c1[C@@H]1C[C@@H](C)C(=O)N1Cc1ccc(OC(F)(F)F)cc1 (racemic) | 257 | – | – | – |
| CC[C@H]1C[C@@H](c2c(OC)cccc2OC)N(Cc2ccc(OC(F)(F)F)cc2)C1=O (racemic) | – | – | 3.61 | – |
| COc1cccc(OC)c1[C@@H]1C[C@H](Cl)C(=O)N1Cc1ccc(OC(F)(F)F)cc1 (racemic) | 277 | 6.6 | 0.041 | – |
| COc1cccc(OC)c1[C@@H]1C[C@@H](Cl)C(=O)N1Cc1ccc(OC(F)(F)F)cc1 (racemic) | – | – | 0.563 | – |
| COc1cccc(OC)c1[C@@H]1C[C@H](F)C(=O)N1Cc1ccc(OC(F)(F)F)cc1 (racemic) | 233 | – | – | concentration at 3 h [20]: 270 ng/g; Kp at 3 h [21]: 3.1; concentration at 3 h [23]: 87 ng/mL; fraction unbound at 3 h [24]: 0.01 |
| COc1cccc(OC)c1C1CC(F)(F)C(=O)N1Cc1ccc(OC(F)(F)F)cc1 (racemic) | 232 | 5.2 | – | – |
| COc1cccc(OC)c1[C@@H]1C[C@@H](O)C(=O)N1Cc1ccc(OC(F)(F)F)cc1 (racemic) | 142 | 25 | – | – |
| COc1cccc(OC)c1[C@@H]1C[C@H](OC)C(=O)N1Cc1ccc(OC(F)(F)F)cc1 (racemic) | – | 1.4 | 0.168 | – |
| CCO[C@H]1C[C@@H](c2c(OC)cccc2OC)N(Cc2ccc(OC(F)(F)F)cc2)C1=O (racemic) | – | – | > 10 | IC50 (Orexin receptor type 2): 3.96 µM |
| COc1cccc(OC)c1[C@@H]1C[C@@H](OC)C(=O)N1Cc1ccc(OC(F)(F)F)cc1 (racemic) | – | – | 6.94 | – |
| COc1cccc(OC)c1[C@@H]1C[C@H](N)C(=O)N1Cc1ccc(OC(F)(F)F)cc1 (racemic) | – | – | 9.49 | IC50 (Orexin receptor type 2): 7.03 µM |
| COc1cccc(OC)c1[C@@H]1C[C@@H](N)C(=O)N1Cc1ccc(OC(F)(F)F)cc1 (racemic) | – | – | 2.05 | IC50 (Orexin receptor type 2): 1.98 µM |
| CN[C@H]1C[C@@H](c2c(OC)cccc2OC)N(Cc2ccc(OC(F)(F)F)cc2)C1=O (racemic) | – | – | > 10 | IC50 (Orexin receptor type 2): 5.78 µM |
| CN[C@@H]1C[C@@H](c2c(OC)cccc2OC)N(Cc2ccc(OC(F)(F)F)cc2)C1=O (racemic) | – | – | 5.81 | IC50 (Orexin receptor type 2): 2.4 µM |
| COc1cccc(OC)c1[C@@H]1C[C@H](N(C)C)C(=O)N1Cc1ccc(OC(F)(F)F)cc1 (racemic) | – | – | 8.3 | IC50 (Orexin receptor type 2): 8.72 µM |
| COc1cccc(OC)c1[C@@H]1C[C@@H](N(C)C)C(=O)N1Cc1ccc(OC(F)(F)F)cc1 (racemic) | – | – | > 10 | IC50 (Orexin receptor type 2): 3.62 µM |
| COc1cccc(OC)c1C1CCC(=O)N1Cc1ccc2oc3ccccc3c2c1 (racemic) | 577 | 6.9 | – | – |
| COc1cccc(OC)c1[C@@H]1C[C@H](F)C(=O)N1Cc1ccc2oc3ccccc3c2c1 (racemic) | 363 | 8.8 | – | – |
| COc1cccc(OC)c1[C@@H]1C[C@H](Cl)C(=O)N1Cc1ccc2oc3ccccc3c2c1 (racemic) | – | – | 0.005 | – |
| COc1cccc(OC)c1[C@@H]1C[C@@H](O)C(=O)N1Cc1ccc2oc3ccccc3c2c1 (racemic) | 128 | – | 0.004 | – |
| COc1cccc(F)c1[C@@H]1C[C@H](F)C(=O)N1Cc1ccc2oc3ccccc3c2c1 (racemic) | 349 | 21 | – | – |
| CNC(=O)[C@@H](c1ccccc1)N1CCc2cc(OC)c(OC)cc2[C@@H]1CCc1ccc(C(F)(F)F)cc1 [ALMOREXANT] | – | – | – | inhibition in vivo at 100 mg/kg (Rattus norvegicus [2]): 43%; Activity (Rattus norvegicus [25]): 31%; Activity (Rattus norvegicus [26]): 6.5%; Activity (Rattus norvegicus [27]): 38.5%; Activity (Rattus norvegicus [28]): 24% |
